According to patent publication US20150160197A1, “System and Method for Analyzing Samples Labeled with 5, 10, 15, 20 Tetrakis (4-Carboxyphenyl) Porphine (TCPP)” (bioAffinity Technologies, Inc., priority 2009, published 2015):
Entries after “also recorded” stand apart in the source; their conditions may differ.

Experiments:
[1] = test system: cells of lung sputum sample; test: Fluorescence spectral imaging (LCTF/CCD) of TCPP-labeled lung sputum cells on slides; type: cell-based, human; details: fixed sputum cells on slide, images separated by spectral emission (530 nm vs 660 nm layers)
Excerpt: According to one embodiment of the present invention, a biological specimen, for example a sputum sample is processed using a thin prep protocol onto a microscope slide. […] Minimizing corrosive effects to the plasma membrane is important as the TCPP is shown to localize on the plasma membrane of the cell surface. The cells are processed to separate the cells from the mucous and cell fragments. Each prepared slide contains a monolayer of the sputum cells. After preparing the slides, the labeling reagent TCPP is dissolved in concentrations between 0.05 ug/ml-4.0 ug/ml in an aqueous alcohol containing between 50% and 90% isopropanol alcohol solution. […]
To gather our data an image capture system having a detector capable of quantifying emission of photons from a TCPP labeled cell across light spectrum from about 350 nm to about 800 nm was employed according to one embodiment of the present invention. […]
Referring now to FIG. 1 is a cell labeled or stained with TCPP according to one embodiment of the present invention. […] The autofluorescence of the cells is detected in the green channel 560 +/−30nm and the fluorescence of the TCPP labeling compound on the cell is detected in the red channel 660 +/−30 nm. […] By tuning the LCTF to different frequencies during imaging, the system permits information to be gathered and analyzed over a broad spectrum. […]

neoplastic cells = details: cell sample incubated 6-24 hours with 200 μg/ml TCPP; cited from earlier work

O=C(O)c1ccc(-c2c3nc(c(-c4ccc(C(=O)O)cc4)c4ccc([nH]4)c(-c4ccc(C(=O)O)cc4)c4nc(c(-c5ccc(C(=O)O)cc5)c5ccc2[nH]5)C=C4)C=C3)cc1 [TCPP, 5, 10, 15, 20 tetrakis (4-carboxyphenyl) porphine]
location of TCPP in cell structures [1]: emitted exclusively from the plasma membrane; also recorded: adheres only to surface features and does not migrate into internal cell structures | location of TCPP in cells after incubation (neoplastic cells): entered cells and bound to the perinuclear membrane and mitochondria of neoplastic cells
